Consider 2 substances from patent US20040063626A1 (priority 2000, published 2004).

The assay has as its system C57BL/6 mice. The assay can be described thus: Hair regrowth test on shaved backs of C57BL/6 mice. Particulars: 100 μl (0.1% w/v) applied over hair removed area once a day for 30 days; female C57BL/6 mice. It counts as in vivo. From the text:
C57BL/6 mice (female), 42˜49 days old, were used in this test.
First of all, mice were removed of hair on their backs using an electric shaver, and weighed. The mice were divided into several groups with weights equally distributed. […] The degree of hair growth was observed by naked eye and the back sides of the mice were photographed.

With Cyclosporin A 4,7-bis(thioamide), the “degree of hair growth observed by naked eye (hair regrowth effect)” value is reported as “no significant effect”.
For the substance Cyclosporin A 4-thioamide, the “degree of hair growth observed by naked eye (hair regrowth effect)” value is reported as “no significant effect”.
